Assay results from patent publication US8771665B2 (Cocrystal Discovery, Inc., priority 2010, dated 2014).

The compounds below were run against T1, HCV1b NS5B polymerase delta 21 (Hepatitis C virus genotype 1b, UniProt P26663) (assay: RNA-Dependent RNA HCV NS5B (Polymerase) Assay and IC50 Determination).
T1 construct: purified HCV1b NS5B polymerase delta 21
T1 sequence (P26663 2420-2989): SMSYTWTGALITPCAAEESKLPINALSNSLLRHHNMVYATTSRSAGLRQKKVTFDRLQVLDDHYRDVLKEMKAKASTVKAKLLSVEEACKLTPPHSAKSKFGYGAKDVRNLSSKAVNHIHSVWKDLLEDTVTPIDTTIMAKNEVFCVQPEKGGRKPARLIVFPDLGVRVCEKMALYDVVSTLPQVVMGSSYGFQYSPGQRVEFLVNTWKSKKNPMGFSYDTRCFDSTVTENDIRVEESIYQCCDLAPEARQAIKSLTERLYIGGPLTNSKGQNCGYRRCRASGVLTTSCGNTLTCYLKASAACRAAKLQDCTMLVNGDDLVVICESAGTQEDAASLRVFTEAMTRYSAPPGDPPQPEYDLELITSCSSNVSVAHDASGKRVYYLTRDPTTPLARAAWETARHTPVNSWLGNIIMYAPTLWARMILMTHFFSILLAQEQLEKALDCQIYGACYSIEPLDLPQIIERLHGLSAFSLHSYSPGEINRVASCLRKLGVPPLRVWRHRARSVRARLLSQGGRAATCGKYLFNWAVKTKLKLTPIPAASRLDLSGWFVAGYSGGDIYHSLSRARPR
Type: biochemical
Method in brief: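 Purified NS5B Δ21 (0.6 μg) with polyA:U16 template, 10 μM UTP plus α-32P UTP in Tris-HCl pH 7.5, 5 mM MgCl2, 0.5% Triton X-100, 60 min at 23°C with varied compound concentrations. Radiolabelled RNA captured on filters, quantified by phosphorimaging; IC50 from triplicate assays.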
For Cc1oc(=O)oc1COC(=O)c1sc(-c2ccc(NC(=O)c3cscn3)cc2)cc1C1=C(C2CCC(C)CC2)CN(C)CC1 (centres unmarked) [Example 108, 3-[1-Methyl-5-(4-methyl-cyclohexyl)-1,2,3,6-tetrahydro-pyridin-4-yl]-5-{4-[(thiazole-4-carbonyl)-amino]-phenyl}-thiophene-2-carboxylic acid 5-methyl-2-oxo-[1,3]-dioxol-4-ylmethyl ester], the IC50 was under 3 µM. In the case of CC1CCC(C2=C(c3cc(-c4ccccc4)sc3C(=O)O)CCN(C(=O)c3nn(C)c4ccccc34)C2)CC1 (centres unmarked) [Example 099, 3-[5-(4-Methyl-cyclohexyl)-1-(1-methyl-1H-indazole-3-carbonyl)-1,2,3,6-tetrahydro-pyridin-4-yl]-5-phenyl-thiophene-2-carboxylic acid], the IC50 is reported as 3 to 10 µM. In the case of CCN1CCC(c2cc(-c3ccc(NCc4cscn4)cc3)sc2C(=O)O)=C(C2CCC(C)CC2)C1 (centres unmarked) [Example 061, 3-[1-Ethyl-5-(4-methyl-cyclohexyl)-1,2,3,6-tetrahydro-pyridin-4-yl]-5-{4-[(thiazol-4-ylmethyl)-amino]-phenyl}-thiophene-2-carboxylic acid], the IC50 is reported as over 10 µM. Work on CC1CCC(C2=C(c3cc(-c4ccc(NC(=O)c5cscn5)cc4)sc3C(=O)O)CN(C)CC2)CC1 (centres unmarked) [Example 167, 3-[1-Methyl-4-(4-methyl-cyclohexyl)-1,2,5,6-tetrahydro-pyridin-3-yl]-5-{4-[(thiazole-4-carbonyl)-amino]-phenyl}-thiophene-2-carboxylic acid] yielded an IC50 of under 3 µM. With CC1CCC(C2=C(c3cc(-c4ccccc4)sc3C(=O)O)CN(C)CC2)CC1 (centres unmarked) [Example 041, 3-[1-Methyl-4-(4-methyl-cyclohexyl)-1,2,5,6-tetrahydro-pyridin-3-yl]-5-phenyl-thiophene-2-carboxylic acid] the IC50 was under 3 µM. CCOC(=O)OC(C)OC(=O)c1sc(-c2ccc(NC(=O)c3cscn3)cc2)cc1C1=C(C2CCC(C)CC2)CN(C)CC1 (centres unmarked) [Example 104, 3-[1-Methyl-5-(4-methyl-cyclohexyl)-1,2,3,6-tetrahydro-pyridin-4-yl]-5-{4-[(thiazole-4-carbonyl)-amino]-phenyl}-thiophene-2-carboxylic acid 1-ethoxycarbonyloxy-ethyl ester] gave an IC50 of over 10 µM. CC1CCC(C2=C(c3cc(-c4ccccc4)sc3C(=O)O)CCN(Cc3ccnc4ccccc34)C2)CC1 (centres unmarked) [Example 148, 3-[5-(4-Methyl-cyclohexyl)-1-quinolin-4-ylmethyl-1,2,3,6-tetrahydro-Pyridin-4-yl]-5-phenyl-thiophene-2-carboxylic acid] was tested, and the IC50 was over 10 µM. Work on CC1CCC(C2=C(c3cc(-c4ccccc4)sc3C(=O)O)CCN(CCCO)C2)CC1 (centres unmarked) [Example 008, 3-[1-(3-Hydroxy-propyl)-5-(4-methyl-cyclohexyl)-1,2,3,6-tetrahydro-pyridin-4-yl]-5-phenyl-thiophene-2-carboxylic acid] yielded an IC50 of under 3 µM. In the case of CN1CCC(c2cc(-c3ccc(NC(=O)c4cscn4)cc3)sc2C(=O)O)=C([C@H]2CC[C@H](C)CC2)C1 [Example 047, 3-[1-Methyl-5-(4-methyl-cyclohexyl)-1,2,3,6-tetrahydro-pyridin-4-yl]-5-{4-[(thiazole-4-carbonyl)-amino]-phenyl}-thiophene-2-carboxylic acid], the IC50 is reported as under 3 µM. Compound CCN1CCC(c2cc(-c3ccc(-c4cc5ncccn5n4)cc3)sc2C(=O)O)=C(C2CCC(C)CC2)C1 (centres unmarked) [Example 015, 3-[1-Ethyl-5-(4-methyl-cyclohexyl)-1,2,3,6-tetrahydro-pyridin-4-yl]-5-(4-pyrazolo[1,5-a]pyrimidin-2-yl-phenyl)-thiophene-2-carboxylic acid] has an IC50 of under 3 µM. CCN1CCC(c2cc(-c3ccc(NC(=O)c4cc[nH]n4)cc3)sc2C(=O)O)=C(C2CCC(C)CC2)C1 (centres unmarked) [Example 055, 3-[1-Ethyl-5-(4-methyl-cyclohexyl)-1,2,3,6-tetrahydro-pyridin-4-yl]-5-{4-[(1H-pyrazole-3-carbonyl)-amino]-phenyl}-thiophene-2-carboxylic acid] gave an IC50 of under 3 µM. Work on CC1CCC(C2=C(c3cc(C#CC(C)(C)C)sc3C(=O)O)CCN(Cc3ccncc3)C2)CC1 (centres unmarked) [Example 133, 5-(3,3-Dimethyl-but-1-ynyl)-3-[5-(4-methyl-cyclohexyl)-1-pyridin-4-ylmethyl-1,2,3,6-tetrahydro-pyridin-4-yl]-thiophene-2-carboxylic acid] yielded an IC50 of 3 to 10 µM. In the case of CCCC#Cc1cc(C2=C(C3CCC(C)CC3)CN(CC)CC2)c(C(=O)O)s1 (centres unmarked) [Example 032, 3-[1-Ethyl-5-(4-methyl-cyclohexyl)-1,2,3,6-tetrahydro-pyridin-4-yl]-5-pent-1-ynyl-thiophene-2-carboxylic acid], the IC50 is reported as under 3 µM. CC1CCC(C2=C(c3cc(-c4ccccc4)sc3C(=O)O)CCN(Cc3ccc(Cl)cc3)C2)CC1 (centres unmarked) [Example 086, 3-[1-(4-Chloro-benzyl)-5-(4-methyl-cyclohexyl)-1,2,3,6-tetrahydro-pyridin-4-yl]-5-phenyl-thiophene-2-carboxylic acid] gave an IC50 of 3 to 10 µM. For CC1CCC(C2=C(c3cc(C#CC4(Cc5ccccc5)CC4)sc3C(=O)O)CCN(C)C2)CC1 (centres unmarked) [Example 174, 5-(1-Benzyl-cyclopropylethynyl)-3-[1-methyl-5-(4-methyl-cyclohexyl)-1,2,3,6-tetrahydro-pyridin-4-yl]-thiophene-2-carboxylic acid], the IC50 was over 10 µM. CN1CCC(c2cc(C#CC(C)(C)C)sc2C(=O)O)=C([C@H]2CC[C@H](C)CC2)C1 [Example 046, 5-(3,3-Dimethyl-but-1-ynyl)-3-[1-methyl-5-(4-methyl-cyclohexyl)-1,2,3,6-tetrahydro-pyridin-4-yl]-thiophene-2-carboxylic acid] showed an IC50 of under 3 µM. CC1CCC(C2=C(c3cc(-c4cc(F)c(NC(=O)c5cscn5)c(F)c4)sc3C(=O)O)CCN(C)C2)CC1 (centres unmarked) [Example 166, 5-{3,5-Difluoro-4-[(thiazole-4-carbonyl)-amino]-phenyl}-3-[1-methyl-5-(4-methyl-cyclohexyl)-1,2,3,6-tetrahydro-pyridin-4-yl]-thiophene-2-carboxylic acid] showed an IC50 of under 3 µM. COC(=O)c1sc(-c2ccc(NC(=O)c3cscn3)cc2)cc1C1=C(C2CCC(C)CC2)CN(C)CC1 (centres unmarked) [Example 013A] gave an IC50 of under 3 µM. In the case of CC1CC=C(C2=C(c3cc(C#CC(C)(C)C)sc3C(=O)O)CCN(C)C2)CC1 (centres unmarked) [Example 068, 5-(3,3-Dimethyl-but-1-ynyl)-3-[1-methyl-5-(4-methyl-cyclohex-1-enyl)-1,2,3,6-tetrahydro-pyridin-4-yl]-thiophene-2-carboxylic acid], the IC50 is reported as under 3 µM. CC1CCC(C2=C(c3cc(-c4ccc(NC(=O)c5cscn5)c(F)c4)sc3C(=O)O)CCN(C)C2)CC1 (centres unmarked) [Example 059, 5-{3-Fluoro-4-[(thiazole-4-carbonyl)-amino]-phenyl}-3-[1-methyl-5-(4-methyl-cyclohexyl)-1,2,3,6-tetrahydro-pyridin-4-yl]-thiophene-2-carboxylic acid] showed an IC50 of under 3 µM. Compound CC1CCC(C2=C(c3cc(C#CC4CC4)sc3C(=O)O)CCN(CCO)C2)CC1 (centres unmarked) [Example 138, 5-Cyclopropylethynyl-3-[1-(2-hydroxy-ethyl)-5-(4-methyl-cyclohexyl)-1,2,3,6-tetrahydro-pyridin-4-yl]-thiophene-2-carboxylic acid] has an IC50 of under 3 µM. CC1CCC(C2=C(c3cc(-c4ccc(-c5cn6ncccc6n5)cc4)sc3C(=O)O)CCN(C)C2)CC1 (centres unmarked) [Example 164, 5-(4-Imidazo[1,2-b]pyridazin-2-yl-phenyl)-3-[1-methyl-5-(4-methyl-cyclohexyl)-1,2,3,6-tetrahydro-pyridin-4-yl]-thiophene-2-carboxylic acid] showed an IC50 of 3 to 10 µM. CC1CCC(C2=C(c3cc(-c4ccc(NC(=O)c5cscn5)cc4)sc3C(=O)OCOC(=O)C(C)(C)C)CCN(C)C2)CC1 (centres unmarked) [Example 101, 3-[1-Methyl-5-(4-methyl-cyclohexyl)-1,2,3,6-tetrahydro-pyridin-4-yl]-5-{4-[(thiazole-4-carbonyl)-amino]-phenyl}-thiophene-2-carboxylic acid 2,2-dimethyl-propionyloxymethyl ester] gave an IC50 of over 10 µM. CC1CCC(C2=C(c3cc(C#CC(C)(C)C)sc3C(=O)O)CN(CCO)CC2)CC1 (centres unmarked) [Example 113, 5-(3,3-Dimethyl-but-1-ynyl)-3-[1-(2-hydroxy-ethyl)-4-(4-methyl-cyclohexyl)-1,2,5,6-tetrahydro-pyridin-3-yl]-thiophene-2-carboxylic acid] showed an IC50 of under 3 µM. In the case of CC1CCC(C2=C(c3cc(-c4ccc(NC(=O)OC(C)(C)C)cc4)sc3C(=O)O)CCN(C)C2)CC1 (centres unmarked) [Example 012, 5-(4-tert-Butoxycarbonylamino-phenyl)-3-[1-methyl-5-(4-methyl-cyclohexyl)-1,2,3,6-tetrahydro-pyridin-4-yl]-thiophene-2-carboxylic acid], the IC50 is reported as over 10 µM. Compound CC1CCC(C2=C(c3cc(-c4ccc(N(C)C(=O)c5cscn5)cc4)sc3C(=O)O)CCN(C)C2)CC1 (centres unmarked) [Example 067, 3-[1-Methyl-5-(4-methyl-cyclohexyl)-1,2,3,6-tetrahydro-pyridin-4-yl]-5-{4-[methyl-(thiazole-4-carbonyl)-amino]-phenyl}-thiophene-2-carboxylic acid] has an IC50 of 3 to 10 µM. CCN1CCC(c2cc(-c3ccc(NC(=O)c4cncs4)cc3)sc2C(=O)O)=C(C2CCC(C)CC2)C1 (centres unmarked) [Example 050, 3-[1-Ethyl-5-(4-methyl-cyclohexyl)-1,2,3,6-tetrahydro-pyridin-4-yl]-5-{4-[(thiazole-5-carbonyl)-amino]-phenyl}-thiophene-2-carboxylic acid] gave an IC50 of 3 to 10 µM. COC(=O)N1CCC(c2cc(-c3ccccc3)sc2C(=O)O)=C(C2CCC(C)CC2)C1 (centres unmarked) [Example 074, 4-(2-Carboxy-5-phenyl-thiophen-3-yl)-5-(4-methyl-cyclohexyl)-3,6-dihydro-2H-pyridine-1-carboxylic acid methyl ester] was tested, and the IC50 was 3 to 10 µM. CC1CCC(C2=C(c3cc(-c4ccccc4)sc3C(=O)O)CCN(CCCCc3ccccc3)C2)CC1 (centres unmarked) [Example 080, 3-[5-(4-Methyl-cyclohexyl)-1-(4-phenyl-butyl)-1,2,3,6-tetrahydro-pyridin-4-yl]-5-phenyl-thiophene-2-carboxylic acid] gave an IC50 of over 10 µM.
